# Assay results taken from patent US10265329B2, “Altering steroid metabolism for treatment of steroid-dependent disease” (THE CLEVELAND CLINIC FOUNDATION, priority 2015, dated 2019).
# Entries after “also recorded” stand apart in the source; their conditions may differ.
# Columns and labels:
# human 3βHSD1 = biological target: T1, human 3βHSD1 (Homo sapiens, UniProt P14060); test: Recombinant 3βHSD1 enzyme assay, [3H]-pregnenolone metabolism (Lineweaver-Burk); assay type: biochemical; conditions: pregnenolone substrate; D4A 5-20 μmol/L
# T1 construct: made in house; host or cells: yeast (microsomes)
# Procedure: To test D4A as an inhibitor of 3βHSD, enzyme assays were performed as described previously. Li et al., Clin Cancer Res. 18:3571-3579 (2012). Briefly, incubations were prepared with recombinant human 3βHSD1 or 3βHSD2 (in yeast microsomes, 45 or 2.5 μg protein per incubation, respectively), [^3H]-pregnenolone (100,000 cpm, 1-20 μmol/L), and D4A (5-20 μmol/L) or ethanol vehicle in 0.5 mL of potassium phosphate buffer (pH 7.4). After a pre-incubation at 37° C. for 1 to 3 min, NAD (1 mmol/L) was added, and the incubation was conducted at 37° C. for 20 min. The reaction was stopped by addition of 1 mL ethyl acetate:isooctane (1:1), and the steroids were then extracted into the organic phase and dried. The steroids in the dried extracts were resolved by HPLC and quantitated by in-line scintillation counting
# [1] = Serum deoxycorticosterone at end of xenograft study; assay type: in vivo; conditions: serum from treated mice at the end of the xenograft study
# Procedure: Mouse serum collection, derivatization and extraction. […] Louis, Mo.). Steroids were extracted with methyl tert-butyl ether (Sigma Aldrich, St. Louis, Mo.), evaporated under a stream of nitrogen gas and reconstituted in methanol:water (50:50) prior to mass spectrometry analysis. Mouse serum analysis. Samples were analyzed on a Thermo TSQ Quantiva-Prelude SPLC system (Thermo Scientific, Waltham, Mass.) with Aria MX 2.1 and Tracefinder 3.2.368.22 software for instrument controls and quantitation. […] Steroids were ionized by electrospray ionization and in positive ion mode. […] Concentrations were determined using stable isotope dilution analysis.
# T1 sequence (P14060 whole entry): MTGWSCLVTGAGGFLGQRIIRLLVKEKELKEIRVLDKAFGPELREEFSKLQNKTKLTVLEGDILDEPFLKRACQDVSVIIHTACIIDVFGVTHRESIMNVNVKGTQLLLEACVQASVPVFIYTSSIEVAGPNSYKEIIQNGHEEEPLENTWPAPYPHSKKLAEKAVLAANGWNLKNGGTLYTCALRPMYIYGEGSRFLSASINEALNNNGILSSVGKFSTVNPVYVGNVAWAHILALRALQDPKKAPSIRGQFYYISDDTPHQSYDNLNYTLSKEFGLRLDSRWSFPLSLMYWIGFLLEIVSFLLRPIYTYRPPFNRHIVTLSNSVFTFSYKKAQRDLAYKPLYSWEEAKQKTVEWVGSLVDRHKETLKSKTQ
structure (smiles),measurement,setting,value
"C[C@]12CCC(=O)C=C1CC[C@@H]1[C@@H]2CC[C@]2(C)C(c3cccnc3)=CC[C@@H]12 [Compound D4A, 17-(3-Pyridyl)androsta-4,16-dien-3-one]",type of inhibition of 3βHSD1,human 3βHSD1,mixed competitive-noncompetitive inhibition; also recorded: mixed inhibition kinetics
same,serum deoxycorticosterone,[1],no detectable increase
